3 compounds from patent publication US4535161A, “Benzoquinolizine derivatives” (Daiichi Seiyaku Co., Ltd., priority 1982, dated 1985) can be followed below.

Molecules are shown by their SMILES. Converted amounts (≈) assume the structure as drawn. Where a name gives a salt, the structure may show the parent alone. Read-outs that look alike come from different tables or passages of the source.

The subject of one data set is E. coli, NIHJ. As to the kind of experiment: Antibacterial activity (MIC), Table 1: E. coli, NIHJ. The format is cell-based. Conditions: Escherichia coli, Mueller-Hinton Broth, 10^6/ml, 37° C., 18 hours. As to the method:
(§1) *Determined by the standard method of the Japan Society of Chemoterapy:
(§2) (MuellerHinton Broth medium), 10^6 /ml of bacteria were seeded and
(§3) incubated at 37° C. for 18 hours.

The test system of the next data set is Sh. flexneri, 2a, 5503. Kind of data set: Antibacterial activity (MIC), Table 1: Sh. flexneri, 2a, 5503. It is filed as cell-based. The following applies: Shigella flexneri, Mueller-Hinton Broth, 10^6/ml, 37° C., 18 hours. As to the method:
as §1, §2, §3

The subject of a further data set is Pr. vulgaris, 08602. As to the kind of experiment: Antibacterial activity (MIC), Table 1: Pr. vulgaris, 08602. It is filed as cell-based. Conditions: Proteus vulgaris, Mueller-Hinton Broth, 10^6/ml, 37° C., 18 hours. The protocol: as §1, §2, §3
Another data set has as its system Pr. mirabilis, IFO-3849. Kind of data set: Antibacterial activity (MIC), Table 1: Pr. mirabilis, IFO-3849. The format is cell-based. The following applies: Proteus mirabilis, IFO3849, Mueller-Hinton Broth, 10^6/ml, 37° C., 18 hours. As to the method:
as §1, §2, §3

The next data set relates to K. pneumoniae, type 1. Kind of data set: Antibacterial activity (MIC), Table 1: K. pneumoniae, type 1. The format is cell-based. The following applies: Klebsiella pneumoniae, TYPE1, Mueller-Hinton Broth, 10^6/ml, 37° C., 18 hours. The protocol:
as §1, §2, §3

For another data set, the system named is Ent. cloacae, 03400. As to the kind of experiment: Antibacterial activity (MIC), Table 1: Ent. cloacae, 03400. It is filed as cell-based. The protocol:
as §1, §2, §3

The test system of a further data set is Ser. marcescens, 10104. Kind of data set: Antibacterial activity (MIC), Table 1: Ser. marcescens, 10104. The format is cell-based. The following applies: Serratia marcescens, Mueller-Hinton Broth, 10^6/ml, 37° C., 18 hours. The protocol:
as §1, §2, §3

In another data set the test system is Ps. aeruginosa, 32104. Kind of data set: Antibacterial activity (MIC), Table 1: Ps. aeruginosa, 32104. It is filed as cell-based. The following applies: Pseudomonas aeruginosa, Mueller-Hinton Broth, 10^6/ml, 37° C., 18 hours. As to the method:
as §1, §2, §3

The subject of the next data set is Ps. aeruginosa, 32233. Kind of data set: Antibacterial activity (MIC), Table 1: Ps. aeruginosa, 32233. The following applies: Pseudomonas aeruginosa, Mueller-Hinton Broth, 10^6/ml, 37° C., 18 hours. The format is cell-based. As to the method: as §1, §2, §3
The subject of the next data set is Ps. aeruginosa, 32234. Kind of data set: Antibacterial activity (MIC), Table 1: Ps. aeruginosa, 32234. The format is cell-based. The following applies: Pseudomonas aeruginosa, Mueller-Hinton Broth, 10^6/ml, 37° C., 18 hours. The protocol:
as §1, §2, §3

The next data set relates to Ps. aeruginosa, 32121. As to the kind of experiment: Antibacterial activity (MIC), Table 1: Ps. aeruginosa, 32121. Conditions: Pseudomonas aeruginosa, Mueller-Hinton Broth, 10^6/ml, 37° C., 18 hours. The format is cell-based. The protocol:
as §1, §2, §3

A further data set concerns Ps. aeruginosa, 32122. Kind of data set: Antibacterial activity (MIC), Table 1: Ps. aeruginosa, 32122. The format is cell-based. The following applies: Pseudomonas aeruginosa, Mueller-Hinton Broth, 10^6/ml, 37° C., 18 hours. As to the method:
as §1, §2, §3

Another data set has as its system S. aureus, 209 P. As to the kind of experiment: Antibacterial activity (MIC), Table 1: S. aureus, 209 P. The format is cell-based. The following applies: Staphylococcus aureus, Mueller-Hinton Broth, 10^6/ml, 37° C., 18 hours. The protocol:
as §1, §2, §3

Another data set concerns S. epidermidis, 56500. As to the kind of experiment: Antibacterial activity (MIC), Table 1: S. epidermidis, 56500. It is filed as cell-based. The following applies: Staphylococcus epidermidis, Mueller-Hinton Broth, 10^6/ml, 37° C., 18 hours. The protocol: as §1, §2, §3
A further data set deals with Str. pyogenes, G-36. Kind of data set: Antibacterial activity (MIC), Table 1: Str. pyogenes, G-36. The format is cell-based. The following applies: Streptococcus pyogenes, G36, Mueller-Hinton Broth, 10^6/ml, 37° C., 18 hours. As to the method: as §1, §2, §3
Data set [1] has as its system Str. faecalis, ATCC-19433. As to the kind of experiment: Antibacterial activity (MIC), Table 1: Str. faecalis, ATCC-19433. It is filed as cell-based. The following applies: Enterococcus faecalis, ATCC19433, Mueller-Hinton Broth, 10^6/ml, 37° C., 18 hours. As to the method: as §1, §2, §3
The test system of another data set is B. subtilis, ATCC-6633. As to the kind of experiment: Antibacterial activity (MIC), Table 1: B. subtilis, ATCC-6633. The format is cell-based. The following applies: Bacillus subtilis, ATCC6633, Mueller-Hinton Broth, 10^6/ml, 37° C., 18 hours. The protocol:
as §1, §2, §3

The subject of a further data set is Gram-positive bacteria. Kind of data set: Antibacterial activity against Gram-positive bacteria (summary of Table 1). It is filed as cell-based. Conditions: in words. The protocol:
as §1, §2, §3

The test system of another data set is Pseudomonas aeruginosa. As to the kind of experiment: Antibacterial activity against Pseudomonas aeruginosa (summary of Table 1). The format is cell-based. The following applies: in words. The protocol: as §1, §2, §3
Data set [2] in a line: Acute toxicity (LD50) in mice (i.v.). Conditions: mouse, in vivo, iv.

For `C=C1CCc2c(N3CCC(O)C3)c(F)cc3c(=O)c(C(=O)O)cn1c23` (stereo not shown) [Ia, 9-fluoro-8-(3-hydroxy-1-pyrrolidinyl)-5-methylene-1-oxo-6,7-dihydro-1H,5H-benzo(ij)quinolizine-2-carboxylic acid], the MIC with E. coli, NIHJ stood at 0.0125 µg/mL (≈ 0.0363 µM); against Sh. flexneri, 2a, 5503 it was 0.0125 µg/mL (≈ 0.0363 µM); against Pr. vulgaris, 08602, 0.05 µg/mL (≈ 0.145 µM); against Pr. mirabilis, IFO-3849, 0.1 µg/mL (≈ 0.29 µM); against K. pneumoniae, type 1 it was 0.1 µg/mL (≈ 0.29 µM); with Ent. cloacae, 03400 (Enterobacter cloacae, Ent. cloacae, 03400, Mueller-Hinton Broth, 10^6/ml, 37° C., 18 hours, read-out: MIC) it was 0.05 µg/mL (≈ 0.145 µM). Further, the MIC is 0.1 µg/mL (≈ 0.29 µM) in the data set on Ser. marcescens, 10104; 0.31 µg/mL (≈ 0.9 µM) against Ps. aeruginosa, 32104; 0.78 µg/mL (≈ 2.27 µM) in the data set with Ps. aeruginosa, 32233; 0.39 µg/mL (≈ 1.13 µM) with Ps. aeruginosa, 32234; 0.1 µg/mL (≈ 0.29 µM) with Ps. aeruginosa, 32121; 0.39 µg/mL (≈ 1.13 µM) against Ps. aeruginosa, 32122. Further, the MIC against S. aureus, 209 P was 0.05 µg/mL (≈ 0.145 µM); against S. epidermidis, 56500, 0.1 µg/mL (≈ 0.29 µM); against Str. pyogenes, G-36, 0.39 µg/mL (≈ 1.13 µM); in data set [1], 0.39 µg/mL (≈ 1.13 µM); against B. subtilis, ATCC-6633, ≤ 0.0063 µg/mL. Moreover, the “antibacterial activity against Gram-positive bacteria” value with Gram-positive bacteria was “very strong antibacterial activity”.

On to `C=C1CCc2c(N3CCC(N)C3)c(F)cc3c(=O)c(C(=O)O)cn1c23` (stereo not shown) [Ib, 8-(3-amino-1-pyrrolidinyl)-9-fluoro-5-methylene-1-oxo-6,7-dihydro-1H,5H-benzo(ij)quinolizine-2-carboxylic acid], for which the MIC with E. coli, NIHJ came out at 0.0125 µg/mL (≈ 0.0364 µM); against Sh. flexneri, 2a, 5503, 0.0125 µg/mL (≈ 0.0364 µM); in the data set with Pr. vulgaris, 08602, 0.025 µg/mL (≈ 0.0728 µM); against Pr. mirabilis, IFO-3849 it was 0.025 µg/mL (≈ 0.0728 µM); against K. pneumoniae, type 1, 0.05 µg/mL (≈ 0.146 µM); against Ent. cloacae, 03400 (Enterobacter cloacae, 03400, 18 h) it was 0.0125 µg/mL (≈ 0.0364 µM). For the same compound, the MIC in the data set with Ser. marcescens, 10104 stood at 0.05 µg/mL (≈ 0.146 µM); in the data set on Ps. aeruginosa, 32104, 0.05 µg/mL (≈ 0.146 µM); against Ps. aeruginosa, 32233, 0.1 µg/mL (≈ 0.291 µM); against Ps. aeruginosa, 32234, 0.05 µg/mL (≈ 0.146 µM); in the data set with Ps. aeruginosa, 32121 it was 0.025 µg/mL (≈ 0.0728 µM); in the data set on Ps. aeruginosa, 32122, 0.1 µg/mL (≈ 0.291 µM). Also, the MIC against S. aureus, 209 P was 0.1 µg/mL (≈ 0.291 µM); in the data set with S. epidermidis, 56500, 0.19 µg/mL (≈ 0.553 µM); against Str. pyogenes, G-36 it was 0.39 µg/mL (≈ 1.14 µM); in data set [1], 0.39 µg/mL (≈ 1.14 µM); against B. subtilis, ATCC-6633, 0.025 µg/mL (≈ 0.0728 µM). The “antibacterial activity against Pseudomonas aeruginosa” value with Pseudomonas aeruginosa is “very strong antibacterial activity”.

In data set [2], `C=C1CCc2c(N3CCC(N)C3)c(F)cc3c(=O)c(C(=O)O)cn1c23` (stereo not shown) [Ib, hydrochloric acid addition salt, 8-(3-amino--pyrrolidinyl)-9-fluoro-5-methylene-6,7-dihydro-1-oxo-1H,5H-benzo(ij)quinolizine-2-carboxylic acid] had an LD50 of 252 mg/kg.

For orientation: MIC means the least concentration at which growth counts as inhibited. In general, LD50 refers to the dose at which mortality reaches 50%. High values mean a less toxic substance, low ones a more toxic substance.
